In article PMC9065678, “BI 1015550 is a PDE4B Inhibitor and a Clinical Drug Candidate for the Oral Treatment of Idiopathic Pulmonary Fibrosis” (Frontiers in Pharmacology, 2022):

Tests used:
[1] = molecular target: T1, PDE4B (Homo sapiens, UniProt Q07343); assay: Recombinant PDE activity, scintillation proximity assay: PDE4B; type: biochemical
T1 construct: PDE4B NG_029038: AA 152–484; made in house; host or cells: SF9 insect cells (baculovirus, Bac-To-Bac, pFastbac)
Experimental: For the preparation of human recombinant PDEs of interest, the Bac-To-Bac baculoviral expression system from Invitrogen (Carlsbad, CA, United States) was used according to the instruction manual. […] The plasmids were transformed into DH10Bac bacteria, SF9 insect cells were transfected with the bacmid DNA, and the resulting baculoviruses were stored and used for further rounds of infections. For protein production, SF9 cells were infected until a cytopathic effect was visible (after about 72 h), the SF9 cells were harvested and broken up by 3 freeze/thaw cycles, and by shearing 10 times through a 0.1 mm cannula using a syringe. […] The Phosphodiesterase Scintillation Proximity Assays (TRKQ7090 for [^3H]cAMP, GE Healthcare Europe GmbH, Chalfont St Giles, United Kingdom, and TRKQ7100 for [^3H]cGMP, Perkin Elmer, Waltham, MA, United States) were performed essentially according to the instruction manual. […] Assay solutions containing recombinant baculoviral-expressed PDE (to give an activity of 5.000–20.000 cpm corresponding to 5–20% of total activity added), 50 mmol/L Tris/HCl pH 7.5, 8.3 mmol/L MgCl2, 1.7 mmol/L EGTA, and 10 µL radiolabeled substrate (0.05 µCi in H2O) were incubated for 1 h at 30°C (final volume 100 μL).

[2] = molecular target: T2, PDE3A (Homo sapiens, UniProt Q14432); assay: Recombinant PDE activity, scintillation proximity assay: PDE3A; type: biochemical; conditions: calculated IC50
T2 construct: made in house; host or cells: SF9 insect cells (baculovirus, Bac-To-Bac, pFastbac)
T2 sequence (Q14432 whole entry): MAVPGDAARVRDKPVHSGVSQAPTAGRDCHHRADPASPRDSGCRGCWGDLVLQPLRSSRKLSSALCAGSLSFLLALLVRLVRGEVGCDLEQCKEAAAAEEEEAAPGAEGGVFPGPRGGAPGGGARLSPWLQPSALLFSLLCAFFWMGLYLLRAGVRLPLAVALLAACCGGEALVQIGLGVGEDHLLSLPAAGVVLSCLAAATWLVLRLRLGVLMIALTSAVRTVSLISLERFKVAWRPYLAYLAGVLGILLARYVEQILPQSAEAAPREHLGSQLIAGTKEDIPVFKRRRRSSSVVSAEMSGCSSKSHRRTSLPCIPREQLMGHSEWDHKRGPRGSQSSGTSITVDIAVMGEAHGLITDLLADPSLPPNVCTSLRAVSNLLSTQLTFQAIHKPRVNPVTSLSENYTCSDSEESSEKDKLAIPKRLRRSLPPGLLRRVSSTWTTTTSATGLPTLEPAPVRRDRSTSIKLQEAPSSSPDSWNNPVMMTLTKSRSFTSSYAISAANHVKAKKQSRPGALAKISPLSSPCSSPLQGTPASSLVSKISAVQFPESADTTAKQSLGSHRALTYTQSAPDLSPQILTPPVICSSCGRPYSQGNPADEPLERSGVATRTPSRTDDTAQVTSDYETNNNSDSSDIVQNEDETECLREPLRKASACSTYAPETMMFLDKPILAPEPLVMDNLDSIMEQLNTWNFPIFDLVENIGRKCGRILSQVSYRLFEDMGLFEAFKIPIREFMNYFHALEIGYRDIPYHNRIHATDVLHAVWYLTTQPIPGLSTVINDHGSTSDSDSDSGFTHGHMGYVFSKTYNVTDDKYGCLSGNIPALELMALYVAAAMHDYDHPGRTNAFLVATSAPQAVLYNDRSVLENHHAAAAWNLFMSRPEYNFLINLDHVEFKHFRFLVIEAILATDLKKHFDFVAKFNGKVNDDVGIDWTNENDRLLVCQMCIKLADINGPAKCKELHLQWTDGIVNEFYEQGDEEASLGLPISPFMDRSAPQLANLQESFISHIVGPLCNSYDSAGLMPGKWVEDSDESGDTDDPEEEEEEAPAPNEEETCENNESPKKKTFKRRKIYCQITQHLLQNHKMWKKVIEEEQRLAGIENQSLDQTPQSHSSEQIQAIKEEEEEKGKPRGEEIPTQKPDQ
Excerpt: For the preparation of human recombinant PDEs of interest, the Bac-To-Bac baculoviral expression system from Invitrogen (Carlsbad, CA, United States) was used according to the instruction manual. In short, the full-length open reading frames of PDE1C (National Center for Biotechnology Information Gene-Ref-Seq identifier NG_051183), PDE3A (NG_030033), PDE4A (NG_029594, AA 156–886), PDE4C (NG_029629), PDE7A (NG_029614), and PDE9A (NG_047067) were cloned into the plasmid vector pFastbac. For PDE4B and PDE4D, active site fragments were used (PDE4B NG_029038: AA 152–484, PDE4D NG_027957, AA 79–438). The plasmids were transformed into DH10Bac bacteria, SF9 insect cells were transfected with the bacmid DNA, and the resulting baculoviruses were stored and used for further rounds of infections. […] The protein content was measured and an equal volume of 87% (v/v) glycerol was added prior to freezing at −20°C. […] The reaction was stopped by addition of 50 µL of yttrium silicate scintillation proximity assay beads (17.8 mg/mL, 18 mM zinc sulfate in H2O) and the amount of produced [^3H]AMP/[^3H]GMP associated was determined using a Wallac Microbeta scintillation counter. […]

[3] = molecular target: T3, PDE5 (Homo sapiens, UniProt O76074); assay: PDE5 inhibition screen at Eurofins Cerep; type: biochemical; conditions: screened at Eurofins Cerep
T3 construct: Eurofins Cerep

[4] = test system: LPS-induced lung neutrophil influx; assay: LPS-induced lung neutrophil influx in male Wistar rats; type: in vivo, rat; conditions: oral, data not shown
Excerpt: Compared with other animal species used to study emesis induction by PDE4 inhibitors, like ferrets, dogs, minipigs, or monkeys, Suncus murinus allows the testing of a sufficient number of animals to provide a high statistical power. […] Male Suncus murinus (weight 50–55 g) from Boehringer Ingelheim (Biberach an der Riss, Germany) or male Wistar rats (200–250 g, Charles River), eight animals per group, were used. […] For this purpose, animals in the positive control and treatment groups were put into a circular Plexiglas chamber with 16 pie-like compartments for one animal each, and were consecutively exposed to nebulized LPS for 30 min. The LPS solution used for nebulization contained 1 mg/mL LPS in phosphate-buffered saline (PBS). Nebulization was performed with the commercially available PARI Master® nebulizer with a PARI Master® LL adapter (Pari GmbH, Starnberg, Germany). 4 h after LPS exposure, the animals were anesthetized and euthanized by cervical dislocation. After sacrifice, the trachea was cannulated and bronchoalveolar lavage was performed by instilling and re-aspirating two-times 1 mL (Suncus murinus) or 5 mL (rat) lavage buffer (PBS +2% bovine serum albumin). BALF volumes were recorded manually. Determination of neutrophil numbers in BALF was performed using a blood hemacytometer (Sysmex XT-1800i, Kobe, Japan).

[5] = Plasma protein binding; type: in vitro ADME
[6] = Off-target screening, Cerep high-throughput profile and non-kinase enzyme profile

T1 sequence (Q07343 324-656): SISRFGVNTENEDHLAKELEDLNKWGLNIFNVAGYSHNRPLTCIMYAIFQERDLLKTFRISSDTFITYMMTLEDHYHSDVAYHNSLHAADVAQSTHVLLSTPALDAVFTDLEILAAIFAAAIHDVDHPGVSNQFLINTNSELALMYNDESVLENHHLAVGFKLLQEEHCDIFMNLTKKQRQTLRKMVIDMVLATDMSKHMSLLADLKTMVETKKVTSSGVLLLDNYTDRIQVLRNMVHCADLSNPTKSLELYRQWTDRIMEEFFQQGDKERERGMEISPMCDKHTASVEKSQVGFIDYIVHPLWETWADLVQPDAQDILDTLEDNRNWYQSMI

Compound: [O-][S+]1CCc2nc(N3CCC(c4ncc(Cl)cn4)CC3)nc(NC3(CO)CCC3)c21 (stereo not shown) [BI 1015550]
- Selectivity for inhibition of PDE4B versus PDE4D [1]: roughly 10 fold
- IC50 ([1]; human recombinant active site fragment, substrate [3H]cAMP, means from n independent experiments, read-out: IC50 PDE4B2): 0.01 µM
- IC50 [2]: 120 µM
- Inhibition of human PDE5 [3]: did not inhibit
- ED50 LPS-induced lung neutrophil influx [4]: 0.1 mg/kg
- Plasma protein binding [5]: 77%
- Off-target effects [6]: not shown any other off-target effects
